Molecules are shown by their SMILES.

The target in the experiment is T1, human CB2R (Homo sapiens, UniProt P34972).
T1 construct: host or cells: CHO cells
T1 sequence (P34972 whole entry): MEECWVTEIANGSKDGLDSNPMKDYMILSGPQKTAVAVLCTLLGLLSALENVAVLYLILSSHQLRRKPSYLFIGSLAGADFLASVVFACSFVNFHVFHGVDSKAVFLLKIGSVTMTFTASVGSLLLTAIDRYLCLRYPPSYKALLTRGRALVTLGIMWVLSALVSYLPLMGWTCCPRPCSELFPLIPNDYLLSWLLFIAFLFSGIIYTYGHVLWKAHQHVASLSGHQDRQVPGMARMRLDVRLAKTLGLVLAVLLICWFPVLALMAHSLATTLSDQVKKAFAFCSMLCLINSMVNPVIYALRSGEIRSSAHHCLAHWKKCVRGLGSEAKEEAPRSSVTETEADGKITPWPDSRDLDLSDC
Briefly: CB2R mediated modulation of cAMP synthesis. The experiment is classed as cell-based. The conditions noted are these: found through the use of the above described assays (binding and cAMP); CHO cells expressing human CB2R, forskolin-stimulated cAMP. As to the method:
B. CB2R Mediated Modulation of cAMP Synthesis:
CHO cells expressing human CB2R (Euroscreen) were plated at a density of 5000 cells per well in 384 well plates and incubated overnight at 37° C. After removing the media, the cells were treated with test compounds diluted in stimulation buffer containing 1 mM IBMX, 0.25% BSA and 10 uM Forskolin. The assay was incubated for 30 minutes at 37° C. Cells were lysed and the cAMP concentration was measured using DiscoverX -XS cAMP kit, following the manufacturer's protocol. In this setting, agonists will decrease forskolin induced production of cAMP while inverse agonists will further increase forskolin induced production of cAMP. EC50 of agonists were calculated as follows. The maximal amount of cAMP produced by forskolin compared to the level of cAMP inhibited by 1 uM CP55940 is defined as 100%. The EC50 value of each test compound was determined as the concentration at which 50% of the forskolin-stimulated cAMP synthesis was inhibited. Data was analyzed using a four-parameter logistic model. (Model 205 of XLfit 4.0).
On to `Cc1nc(NC(=O)C(C)(C)S(=O)(=O)c2ccc(C(F)(F)F)cc2)sc1C(C)(C)C` [N-(5-tert-Butyl-4-methyl-thiazol-2-yl)-2-methyl-2-(4-trifluoromethyl-benzenesulfonyl)-propionamide], for which the agonistic activity result is recorded as “agonistic activity”. Regarding `CC(C)(C(=O)Nc1nc(C(F)(F)F)cs1)S(=O)(=O)c1ccc(C(F)(F)F)nc1` [2-methyl-2-{[6-(trifluoromethyl)pyridin-3-yl]sulfonyl}-N-[4-(trifluoromethyl)-1,3-thiazol-2-yl]propanamide], the agonistic activity entry was “agonistic activity”.

As for `CC(C)(C(=O)Nc1cc(C(F)(F)F)ccn1)S(=O)(=O)c1ccc(F)cc1F` [2-[(2,4-difluorophenyl)sulfonyl]-2-methyl-N-[4-(trifluoromethyl)pyridin-2-yl]propanamide], the agonistic activity result is “agonistic activity”. To `Cn1nc(C(C)(C)C)cc1NC(=O)C1(S(=O)(=O)c2ccc(C(F)(F)F)cc2)CC1` [1-(4-Trifluoromethyl-benzenesulfonyl)-cyclopropanecarboxylic acid (5-tert-butyl-2-methyl-2H-pyrazol-3-yl)-amide] belongs “agonistic activity”; to `CC(C)(C(=O)Nc1cnc2ccccc2c1)S(=O)(=O)c1ccc(S(C)(=O)=O)cc1` [2-(4-Methanesulfonyl-benzenesulfonyl)-2-methyl-N-quinolin-3-yl-propionamide], “agonistic activity”. In the case of `CC(C)(C(=O)Nc1cc(C(F)(F)F)ccn1)S(=O)(=O)c1ccc(C(F)(F)F)nc1` [2-Methyl-2-(6-trifluoromethyl-pyridine-3-sulfonyl)-N-(4-trifluoromethyl-pyridin-2-yl)-propionamide], the agonistic activity result is “agonistic activity”. `CC(C)(C)c1cc(NC(=O)C(C)(C)S(=O)(=O)c2ccc(C(F)(F)F)cc2)no1` [N-(5-tert-Butyl-isoxazol-3-yl)-2-methyl-2-(4-trifluoromethyl-benzenesulfonyl)-propionamide]: the agonistic activity entry is on record as “agonistic activity”. Regarding `CC(C)(C(=O)Nc1nc(C(F)(F)F)cs1)S(=O)(=O)c1ccc(Cl)cc1F` [2-[(4-chloro-2-fluorophenyl)sulfonyl]-2-methyl-N-[4-(trifluoromethyl)-1,3-thiazol-2-yl]propanamide], the agonistic activity result is recorded as “agonistic activity”. Take `CC(C)(C(=O)Nc1nc(C2CC2)cs1)S(=O)(=O)c1ccc(S(C)(=O)=O)cc1` [N-(4-cyclopropyl-1,3-thiazol-2-yl)-2-methyl-2-{[4-(methylsulfonyl)phenyl]sulfonyl}propanamide]: the agonistic activity result is reported as “agonistic activity”. As for `CC(C)(C(=O)Nc1cccc2ccccc12)S(=O)(=O)c1ccc(Cl)cc1` [2-(4-Chloro-benzenesulfonyl)-2-methyl-N-naphthalen-1-yl-propionamide], the agonistic activity result is given as “agonistic activity”.

Regarding `Cc1ccc(S(=O)(=O)C(C)(C)C(=O)Nc2cc(C(C)(C)C)no2)cc1F` [N-(3-tert-Butyl-isoxazol-5-yl)-2-(3-fluoro-4-methyl-benzenesulfonyl)-2-methyl-propionamide], the agonistic activity result was “agonistic activity”. `CC(C)(C(=O)Nc1ccc(C(F)(F)F)cn1)S(=O)(=O)c1ccc(N2CCOCC2)nc1` [2-Methyl-2-(6-morpholin-4-yl-pyridine-3-sulfonyl)-N-(5-trifluoromethyl-pyridin-2-yl)-propionamide]: the agonistic activity entry is recorded as “agonistic activity”. To `Cc1onc(NC(=O)C(C)(C)S(=O)(=O)c2ccc(Cl)cc2)c1C` [2-(4-Chloro-benzenesulfonyl)-N-(4,5-dimethyl-isoxazol-3-yl)-2-methyl-propionamide] belongs “agonistic activity”; to `CCc1sc(NC(=O)C(C)(C)S(=O)(=O)c2ccc(C(F)(F)F)nc2)nc1-c1ccccc1` [N-(5-ethyl-4-phenyl-1,3-thiazol-2-yl)-2-methyl-2-{[6-(trifluoromethyl)pyridin-3-yl]sulfonyl}propanamide], “agonistic activity”; to `Cc1nc(NC(=O)C(C)(C)S(=O)(=O)c2ccccc2)sc1C(C)(C)C` [2-Benzenesulfonyl-N-(5-tert-butyl-4-methyl-thiazol-2-yl)-2-methyl-propionamide], “agonistic activity”. To `CC(C)(C)c1nc(NC(=O)C(C)(C)S(=O)(=O)c2ccc(Cl)cc2)sc1C#N` [N-(4-tert-butyl-5-cyano-1,3-thiazol-2-yl)-2-[(4-chlorophenyl)sulfonyl]-2-methylpropanamide] belongs “agonistic activity”; to `Cc1noc(NC(=O)C(C)(C)S(=O)(=O)c2ccc(Cl)cc2)c1C` [2-(4-Chloro-benzenesulfonyl)-N-(3,4-dimethyl-isoxazol-5-yl)-2-methyl-propionamide], “agonistic activity”. For the compound `CC(C)(C(=O)Nc1ccc(C(F)(F)F)cn1)S(=O)(=O)c1cc(F)ccc1F` [2-(2,5-Difluoro-benzenesulfonyl)-2-methyl-N-(5-trifluoromethyl-pyridin-2-yl)-propionamide], the agonistic activity result is “agonistic activity”. For the compound `CC(C)(C)c1nnc(NC(=O)C(C)(C)S(=O)(=O)c2ccc(C(F)(F)F)nc2)s1` [N-(5-tert-butyl-1,3,4-thiadiazol-2-yl)-2-methyl-2-{[6-(trifluoromethyl)pyridin-3-yl]sulfonyl}propanamide], the agonistic activity result is reported as “agonistic activity”. Under `CC(C)(C(=O)Nc1ccc(C(F)(F)F)cn1)S(=O)(=O)c1ccc(S(C)(=O)=O)cc1` [2-methyl-2-{[4-(methylsulfonyl)phenyl]sulfonyl}-N-[5-(trifluoromethyl)pyridin-2-yl]propanamide] stands “agonistic activity”; under `Cc1sc(NC(=O)C(C)(C)S(=O)(=O)c2ccc(Cl)cc2)nc1C(C)(C)C` [N-(4-tert-Butyl-5-methyl-thiazol-2-yl)-2-(4-chloro-benzenesulfonyl)-2-methyl-propionamide], “agonistic activity”; under `Cc1ccc(S(=O)(=O)C(C)(C)C(=O)Nc2cc(-c3ccccc3)nn2C)cc1` [2-Methyl-N-(2-methyl-5-phenyl-2H-pyrazol-3-yl)-2-(toluene-4-sulfonyl)-propionamide], “agonistic activity”. Under `Cc1nc(NC(=O)C(C)(C)S(=O)(=O)c2ccc3ccccc3c2)sc1C(C)(C)C` [N-(5-tert-Butyl-4-methyl-thiazol-2-yl)-2-methyl-2-(naphthalene-2-sulfonyl)-propionamide] stands “agonistic activity”.

In the case of `CC(C)(C(=O)Nc1ccc(C(F)(F)F)cn1)S(=O)(=O)c1ccc(Cl)nc1` [2-(6-Chloro-pyridine-3-sulfonyl)-2-methyl-N-(5-trifluoromethyl-pyridin-2-yl)-propionamide], the agonistic activity entry was “agonistic activity”. To `Cc1nc(NC(=O)C2(S(=O)(=O)c3ccc(Cl)cc3)CC2)sc1C(C)(C)C` [1-(4-Chloro-benzenesulfonyl)-cyclopropanecarboxylic acid (5-tert-butyl-4-methyl-thiazol-2-yl)-amide] belongs “agonistic activity”. To `CC(C)(C(=O)Nc1cccc(C(F)(F)F)n1)S(=O)(=O)c1ccc(Cl)cc1F` [2-(4-Chloro-2-fluoro-benzenesulfonyl)-2-methyl-N-(6-trifluoromethyl-pyridin-2-yl)-propionamide] belongs “agonistic activity”. To `CC(C)(C)c1cc(NC(=O)C(C)(C)S(=O)(=O)c2cccnc2)no1` [N-(5-tert-Butyl-isoxazol-3-yl)-2-methyl-2-(pyridine-3-sulfonyl)-propionamide] belongs “agonistic activity”; to `Cc1nc(NC(=O)C(C)(C)S(=O)(=O)c2ccc(Cl)c(Cl)c2)sc1C(C)(C)C` [N-(5-tert-Butyl-4-methyl-thiazol-2-yl)-2-(3,4-dichloro-benzenesulfonyl)-2-methyl-propionamide], “agonistic activity”. On to `O=C(Nc1ccc(C(F)(F)F)cn1)C1(S(=O)(=O)c2ccc(C(F)(F)F)cc2)CC1` [1-(4-Trifluoromethyl-benzenesulfonyl)-cyclopropanecarboxylic acid (5-trifluoromethyl-pyridin-2-yl)-amide], for which the agonistic activity result is “agonistic activity”.

For the compound `Cc1cc(NC(=O)C(C)(C)S(=O)(=O)c2ccc(Cl)cc2)no1` [2-(4-Chloro-benzenesulfonyl)-2-methyl-N-(5-methyl-isoxazol-3-yl)-propionamide], the agonistic activity result was “agonistic activity”. Take `COc1ccc(S(=O)(=O)C(C)(C)C(=O)Nc2nc(C(C)(C)C)cs2)cc1` [N-(4-tert-butyl-1,3-thiazol-2-yl)-2-[(4-methoxyphenyl)sulfonyl]-2-methylpropanamide]: the agonistic activity entry is listed as “agonistic activity”. Take `CC(C)(C)c1csc(NC(=O)C(C)(C)S(=O)(=O)c2ccc(F)cc2)n1` [N-(4-tert-Butyl-thiazol-2-yl)-2-(4-fluoro-benzenesulfonyl)-2-methyl-propionamide]: the agonistic activity result was “agonistic activity”. Under `CC(C)(C(=O)Nc1nc(C2CC2)cs1)S(=O)(=O)c1ccc(Cl)cc1` [2-(4-Chloro-benzenesulfonyl)-N-(4-cyclopropyl-thiazol-2-yl)-2-methyl-propionamide] stands “agonistic activity”; under `Cc1ccnc(NC(=O)C(C)(C)S(=O)(=O)c2ccc(Cl)cc2)c1` [2-(4-Chloro-benzenesulfonyl)-2-methyl-N-(4-methyl-pyridin-2-yl)-propionamide], “agonistic activity”.

These data come from patent publication US8299111B2, “Compounds which modulate the CB2 receptor” (Boehringer Ingelheim International GmbH, priority 2006, dated 2012).
